Assay [1] concerns MDA-MB-231. The assay is described as follows: Cytotoxicity in human MDA-MB-231 cells assessed as reduction in cell viability incubated for 72 hrs by MTT assay. The note with it: MDA-MB-231, 72 h.
Assay [2] concerns HT-29. Kind of assay: Cytotoxicity in human HT-29 cells assessed as reduction in cell viability incubated for 72 hrs by MTT assay. To be noted: HT-29, 72 h. For orientation: Formazan colour is commonly taken as a measure of viable cells.
For assay [3], the system named is NCI-H460. The assay is described as follows: Cytotoxicity in human NCI-H460 cells assessed as reduction in cell viability incubated for 72 hrs by MTT assay. The note with it: NCI-H460, 72 h.
The subject of assay [4] is MKN-45. The assay is described as follows: Cytotoxicity in human MKN45 cells assessed as reduction in cell viability incubated for 72 hrs by MTT assay. The note with it: MKN-45, 72 h.
Assay [5] has as its target Mast/stem cell growth factor receptor Kit (Homo sapiens, UniProt P10721). The assay is described as follows: Inhibition of c-Kit (unknown origin) using poly (Glu, Tyr) 4:1 substrate incubated for 30 mins by HTRF assay. On the technique in general: Time-resolved FRET reads energy transfer from a long-lived donor to a nearby acceptor.
For assay [6], the target named is Vascular endothelial growth factor receptor 2 (Homo sapiens, UniProt P35968). The assay is described as follows: Inhibition of KDR (unknown origin) using poly (Glu, Tyr) 4:1 substrate incubated for 30 mins by HTRF assay.
Assay [7] deals with Vascular endothelial growth factor receptor 1 (Homo sapiens, UniProt P17948). The assay is described as follows: Inhibition of FLT1 (unknown origin) using poly (Glu, Tyr) 4:1 substrate incubated for 30 mins by HTRF assay.
Chain of Vascular endothelial growth factor receptor 1 (P17948 whole entry): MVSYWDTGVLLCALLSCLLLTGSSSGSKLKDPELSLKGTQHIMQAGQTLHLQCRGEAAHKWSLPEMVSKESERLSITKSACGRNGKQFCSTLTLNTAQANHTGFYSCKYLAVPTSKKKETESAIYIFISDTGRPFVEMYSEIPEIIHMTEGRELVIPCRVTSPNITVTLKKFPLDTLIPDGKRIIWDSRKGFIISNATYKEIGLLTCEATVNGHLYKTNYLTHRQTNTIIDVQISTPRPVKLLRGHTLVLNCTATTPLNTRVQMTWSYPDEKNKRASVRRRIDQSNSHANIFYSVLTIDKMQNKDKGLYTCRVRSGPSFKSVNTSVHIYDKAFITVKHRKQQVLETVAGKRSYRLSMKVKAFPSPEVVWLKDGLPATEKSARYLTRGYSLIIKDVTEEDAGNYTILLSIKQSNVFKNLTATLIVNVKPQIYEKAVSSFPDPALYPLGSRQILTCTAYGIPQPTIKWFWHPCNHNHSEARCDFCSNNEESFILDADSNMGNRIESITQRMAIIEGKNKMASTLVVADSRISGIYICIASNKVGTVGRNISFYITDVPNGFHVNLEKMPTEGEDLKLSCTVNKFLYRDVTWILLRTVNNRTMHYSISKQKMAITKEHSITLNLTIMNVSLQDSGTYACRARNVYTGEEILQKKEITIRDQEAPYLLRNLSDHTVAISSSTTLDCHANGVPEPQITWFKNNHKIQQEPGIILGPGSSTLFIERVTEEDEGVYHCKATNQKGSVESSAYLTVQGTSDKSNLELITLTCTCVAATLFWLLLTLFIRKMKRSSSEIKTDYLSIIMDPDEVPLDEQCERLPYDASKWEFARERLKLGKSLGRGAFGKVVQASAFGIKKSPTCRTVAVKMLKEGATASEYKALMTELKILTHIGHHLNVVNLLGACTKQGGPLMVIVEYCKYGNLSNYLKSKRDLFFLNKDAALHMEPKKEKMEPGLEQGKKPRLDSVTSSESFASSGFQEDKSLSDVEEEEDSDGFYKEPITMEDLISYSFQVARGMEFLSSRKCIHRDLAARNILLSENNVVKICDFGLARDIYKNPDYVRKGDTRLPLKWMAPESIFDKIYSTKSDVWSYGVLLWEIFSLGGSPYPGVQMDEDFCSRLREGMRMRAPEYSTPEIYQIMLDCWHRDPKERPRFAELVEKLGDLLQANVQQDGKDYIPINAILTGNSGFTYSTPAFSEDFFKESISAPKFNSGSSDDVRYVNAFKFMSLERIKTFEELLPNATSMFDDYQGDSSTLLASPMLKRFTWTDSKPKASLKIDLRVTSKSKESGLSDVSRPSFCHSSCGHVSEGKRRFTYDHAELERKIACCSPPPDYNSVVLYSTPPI
For assay [8], the target named is ALK tyrosine kinase receptor (Homo sapiens, UniProt Q9UM73). Kind of assay: Inhibition of ALK (unknown origin) using poly (Glu, Tyr) 4:1 substrate incubated for 30 mins by HTRF assay.
The target of assay [9] is Macrophage-stimulating protein receptor (Homo sapiens, UniProt Q04912). Kind of assay: Inhibition of RON (unknown origin) using poly (Glu, Tyr) 4:1 substrate incubated for 30 mins by HTRF assay.
Assay [10] can be described thus: Inhibition of VEGFR (unknown origin) using poly (Glu, Tyr) 4:1 substrate incubated for 30 mins by HTRF assay. Further details: species or system Homo sapiens.
The target of assay [11] is Platelet-derived growth factor receptor beta (Homo sapiens, UniProt P09619). Kind of assay: Inhibition of PDGFRbeta (unknown origin) using poly (Glu, Tyr) 4:1 substrate incubated for 30 mins by HTRF assay.
Chain of Platelet-derived growth factor receptor beta (P09619 whole entry): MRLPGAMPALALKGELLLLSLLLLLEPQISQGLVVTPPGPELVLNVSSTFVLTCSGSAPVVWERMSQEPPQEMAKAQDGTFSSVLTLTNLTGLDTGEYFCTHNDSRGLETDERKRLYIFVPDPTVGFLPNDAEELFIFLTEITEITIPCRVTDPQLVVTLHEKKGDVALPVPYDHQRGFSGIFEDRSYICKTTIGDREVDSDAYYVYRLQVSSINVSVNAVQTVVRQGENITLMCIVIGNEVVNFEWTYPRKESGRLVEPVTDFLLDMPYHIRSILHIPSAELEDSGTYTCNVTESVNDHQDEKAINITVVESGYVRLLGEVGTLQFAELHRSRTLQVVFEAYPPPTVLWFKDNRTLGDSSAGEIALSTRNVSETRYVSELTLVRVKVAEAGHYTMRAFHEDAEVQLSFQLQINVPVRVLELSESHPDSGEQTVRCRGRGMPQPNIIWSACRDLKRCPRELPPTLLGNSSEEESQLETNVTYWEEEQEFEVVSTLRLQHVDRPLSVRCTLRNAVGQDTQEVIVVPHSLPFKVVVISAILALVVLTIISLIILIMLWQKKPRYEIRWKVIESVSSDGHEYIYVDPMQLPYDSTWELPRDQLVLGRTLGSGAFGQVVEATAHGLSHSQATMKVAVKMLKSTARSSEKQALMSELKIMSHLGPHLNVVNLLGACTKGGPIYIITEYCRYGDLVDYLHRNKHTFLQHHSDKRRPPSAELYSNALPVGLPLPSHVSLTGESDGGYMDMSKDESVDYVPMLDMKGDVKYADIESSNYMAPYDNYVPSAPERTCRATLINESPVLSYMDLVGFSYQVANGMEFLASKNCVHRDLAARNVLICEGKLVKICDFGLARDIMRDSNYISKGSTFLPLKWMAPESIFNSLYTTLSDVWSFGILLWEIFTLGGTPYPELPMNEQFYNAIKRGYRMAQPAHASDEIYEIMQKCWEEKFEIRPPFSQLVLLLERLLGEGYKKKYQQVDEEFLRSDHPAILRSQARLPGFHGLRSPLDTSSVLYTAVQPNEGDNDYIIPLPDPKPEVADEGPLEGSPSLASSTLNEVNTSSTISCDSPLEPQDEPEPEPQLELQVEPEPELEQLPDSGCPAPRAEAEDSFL
For assay [12], the target named is Epidermal growth factor receptor (Homo sapiens, UniProt P00533). Kind of assay: Inhibition of EGFR (unknown origin) using poly (Glu, Tyr) 4:1 substrate incubated for 30 mins by HTRF assay.
Assay [13] deals with Hepatocyte growth factor receptor (Homo sapiens, UniProt P08581). Kind of assay: Inhibition of c-Met (unknown origin) using poly (Glu, Tyr) 4:1 substrate incubated for 30 mins by HTRF assay.
Chain of Hepatocyte growth factor receptor (P08581 whole entry): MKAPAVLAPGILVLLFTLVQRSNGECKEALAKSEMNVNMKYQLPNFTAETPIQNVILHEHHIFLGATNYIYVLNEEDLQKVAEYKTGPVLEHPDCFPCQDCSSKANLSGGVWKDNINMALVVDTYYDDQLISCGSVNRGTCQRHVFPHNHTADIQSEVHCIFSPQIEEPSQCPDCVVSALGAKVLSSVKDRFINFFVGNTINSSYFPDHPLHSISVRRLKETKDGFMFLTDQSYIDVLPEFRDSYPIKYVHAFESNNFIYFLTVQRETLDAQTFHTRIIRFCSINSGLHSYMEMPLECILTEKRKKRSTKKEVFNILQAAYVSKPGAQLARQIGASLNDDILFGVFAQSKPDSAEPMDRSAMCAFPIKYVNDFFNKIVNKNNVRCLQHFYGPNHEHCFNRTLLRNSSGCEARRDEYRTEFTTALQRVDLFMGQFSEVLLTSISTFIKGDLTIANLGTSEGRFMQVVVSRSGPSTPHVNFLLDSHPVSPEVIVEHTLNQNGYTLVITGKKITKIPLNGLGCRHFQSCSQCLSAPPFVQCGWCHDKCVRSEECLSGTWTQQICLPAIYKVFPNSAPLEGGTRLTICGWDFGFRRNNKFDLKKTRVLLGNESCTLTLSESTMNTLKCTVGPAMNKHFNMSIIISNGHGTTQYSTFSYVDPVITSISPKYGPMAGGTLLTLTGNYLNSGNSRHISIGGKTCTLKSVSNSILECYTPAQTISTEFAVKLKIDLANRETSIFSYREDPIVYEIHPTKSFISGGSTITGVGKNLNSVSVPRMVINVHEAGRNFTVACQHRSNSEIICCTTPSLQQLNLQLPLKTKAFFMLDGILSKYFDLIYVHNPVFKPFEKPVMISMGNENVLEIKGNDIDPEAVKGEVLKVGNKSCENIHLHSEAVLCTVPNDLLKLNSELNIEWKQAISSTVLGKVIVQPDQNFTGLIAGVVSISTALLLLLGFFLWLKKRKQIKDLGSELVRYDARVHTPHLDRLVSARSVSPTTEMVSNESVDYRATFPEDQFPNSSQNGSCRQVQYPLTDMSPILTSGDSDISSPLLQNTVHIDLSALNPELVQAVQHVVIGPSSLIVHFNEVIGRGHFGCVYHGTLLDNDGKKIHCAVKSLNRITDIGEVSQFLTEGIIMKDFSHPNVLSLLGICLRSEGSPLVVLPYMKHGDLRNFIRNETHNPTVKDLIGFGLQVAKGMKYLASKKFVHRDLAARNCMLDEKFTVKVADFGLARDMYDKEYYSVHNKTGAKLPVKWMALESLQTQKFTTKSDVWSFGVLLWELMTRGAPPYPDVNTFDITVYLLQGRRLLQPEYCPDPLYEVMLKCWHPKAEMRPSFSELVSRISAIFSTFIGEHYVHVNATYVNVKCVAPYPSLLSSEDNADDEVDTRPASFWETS
In assay [14] the target is Platelet-derived growth factor receptor alpha (Homo sapiens, UniProt P16234). The assay is described as follows: Inhibition of PDGFRalpha (unknown origin) using poly (Glu, Tyr) 4:1 substrate incubated for 30 mins by HTRF assay.
Chain of Platelet-derived growth factor receptor alpha (P16234 whole entry): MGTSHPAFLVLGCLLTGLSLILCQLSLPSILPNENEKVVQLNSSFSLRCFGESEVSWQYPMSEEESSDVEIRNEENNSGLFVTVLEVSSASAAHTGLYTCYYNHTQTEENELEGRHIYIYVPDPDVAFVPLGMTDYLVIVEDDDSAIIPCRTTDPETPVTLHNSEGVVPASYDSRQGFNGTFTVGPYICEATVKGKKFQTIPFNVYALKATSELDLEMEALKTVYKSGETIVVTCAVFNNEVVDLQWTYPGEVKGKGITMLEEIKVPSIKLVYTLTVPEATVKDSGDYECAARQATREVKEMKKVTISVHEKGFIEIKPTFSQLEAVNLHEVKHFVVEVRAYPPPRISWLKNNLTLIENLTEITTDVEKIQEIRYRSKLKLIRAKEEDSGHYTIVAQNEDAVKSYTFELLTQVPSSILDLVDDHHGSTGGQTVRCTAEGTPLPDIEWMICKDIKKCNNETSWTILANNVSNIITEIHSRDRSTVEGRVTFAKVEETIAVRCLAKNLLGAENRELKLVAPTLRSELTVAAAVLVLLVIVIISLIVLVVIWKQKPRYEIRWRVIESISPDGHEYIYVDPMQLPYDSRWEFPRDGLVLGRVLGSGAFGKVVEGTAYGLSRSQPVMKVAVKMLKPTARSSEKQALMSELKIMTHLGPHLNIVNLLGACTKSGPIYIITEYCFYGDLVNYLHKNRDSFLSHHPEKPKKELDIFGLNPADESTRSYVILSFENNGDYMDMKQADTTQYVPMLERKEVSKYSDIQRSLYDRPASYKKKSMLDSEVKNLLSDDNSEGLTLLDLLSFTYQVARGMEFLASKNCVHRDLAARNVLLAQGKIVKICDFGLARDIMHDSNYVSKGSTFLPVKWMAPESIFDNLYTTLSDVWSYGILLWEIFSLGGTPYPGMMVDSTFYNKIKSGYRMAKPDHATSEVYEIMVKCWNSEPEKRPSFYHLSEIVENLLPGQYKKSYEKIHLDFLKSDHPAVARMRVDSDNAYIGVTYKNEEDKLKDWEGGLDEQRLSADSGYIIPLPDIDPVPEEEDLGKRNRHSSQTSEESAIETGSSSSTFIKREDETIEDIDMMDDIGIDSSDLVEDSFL
Assay [15] addresses T1, Receptor-type tyrosine-protein kinase FLT3 (Homo sapiens, UniProt P36888).
T1 sequence (P36888 whole entry): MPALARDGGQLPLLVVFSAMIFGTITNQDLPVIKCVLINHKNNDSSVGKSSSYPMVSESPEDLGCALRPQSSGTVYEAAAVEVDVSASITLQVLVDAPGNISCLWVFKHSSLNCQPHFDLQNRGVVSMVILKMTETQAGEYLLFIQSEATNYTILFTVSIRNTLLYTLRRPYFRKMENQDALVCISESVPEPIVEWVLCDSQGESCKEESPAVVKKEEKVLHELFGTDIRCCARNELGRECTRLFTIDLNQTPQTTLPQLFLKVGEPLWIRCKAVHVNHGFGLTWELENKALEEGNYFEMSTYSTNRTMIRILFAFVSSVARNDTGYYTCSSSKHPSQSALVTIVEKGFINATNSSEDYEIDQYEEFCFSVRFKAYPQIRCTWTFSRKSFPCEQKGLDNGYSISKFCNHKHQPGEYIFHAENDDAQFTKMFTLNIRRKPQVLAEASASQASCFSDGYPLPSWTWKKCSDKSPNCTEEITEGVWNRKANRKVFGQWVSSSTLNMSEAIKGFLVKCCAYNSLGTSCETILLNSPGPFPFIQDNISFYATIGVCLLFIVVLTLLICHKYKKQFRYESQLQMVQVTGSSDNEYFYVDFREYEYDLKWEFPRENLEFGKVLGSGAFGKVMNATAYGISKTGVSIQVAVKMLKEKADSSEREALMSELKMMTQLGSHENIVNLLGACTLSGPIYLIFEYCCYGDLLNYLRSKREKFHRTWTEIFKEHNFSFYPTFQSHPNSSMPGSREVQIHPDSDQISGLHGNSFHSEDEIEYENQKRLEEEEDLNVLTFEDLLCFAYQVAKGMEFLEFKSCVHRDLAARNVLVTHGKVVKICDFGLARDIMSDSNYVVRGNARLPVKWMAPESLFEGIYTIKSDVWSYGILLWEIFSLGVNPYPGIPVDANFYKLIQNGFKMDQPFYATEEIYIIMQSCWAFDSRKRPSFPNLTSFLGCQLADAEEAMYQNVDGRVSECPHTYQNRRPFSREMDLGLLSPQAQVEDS
The assay is described as follows: Inhibition of FLT3 (unknown origin) using poly (Glu, Tyr) 4:1 substrate incubated for 30 mins by HTRF assay.

We go through 25 molecules from ChEMBL document CHEMBL4340553 (Bioorg Med Chem, 2019).

By IC50 is commonly meant the concentration at which inhibition is half-maximal. In the case of `COc1cc2nccc(Oc3ccc(NC(=O)NS(=O)(=O)Cc4ccc(Br)cc4)cc3F)c2cc1OC`, the IC50 in assay [1] amounted to 2.26 µM; in assay [2], 3.12 µM; in assay [3], 1.65 µM; in assay [4], 1.42 µM.

With `COc1cc2nccc(Oc3ccc(NC(=O)NS(=O)(=O)Cc4ccc(F)cc4)cc3)c2cc1OC`, the half-inhibitory concentration (IC50) in assay [1] was 2.64 µM; in assay [2], 3.25 µM; in assay [3] it was 1.98 µM; in assay [4], 1.32 µM.

As to `COc1cc2c(Oc3ccc(NC(=O)NS(=O)(=O)Cc4ccccc4)cc3F)ccnc2cc1OCCCN1CCCCC1`, the IC50 is 1.94 µM in assay [1], 1.23 µM in assay [2], 0.74 µM in assay [3] and 0.65 µM in assay [4].

Turning to `COc1cc2c(Oc3ccc(NC(=O)NS(=O)(=O)Cc4ccc(F)cc4)cc3F)ccnc2cc1OCCCN1CCCC1`, the IC50 in assay [5] was 0.38 µM; in assay [6], 0.095 µM; in assay [1], 0.49 µM; in [7], 0.418 µM; in assay [2], 0.16 µM; in assay [8], over 10 µM. For the same molecule, the IC50 in assay [9] is 0.375 µM; in assay [10] it was 0.689 µM; in [11], 0.356 µM; in assay [12], over 10 µM; in assay [3], 0.055 µM; in assay [13], 0.00198 µM. For the same molecule, the values for the IC50 in assay [14], in [4] and in assay [15] were 0.242 µM, 0.064 µM and 0.4 µM, respectively.

In the case of `COc1cc2nccc(Oc3ccc(NC(=O)NS(=O)(=O)Cc4ccc(F)cc4)cc3F)c2cc1OC`, the 50% inhibitory concentration (IC50) was 2.04 µM in assay [1], 2.68 µM in [2], 1.04 µM in assay [3] and 0.96 µM in assay [4].

On to `COc1cc2nccc(Oc3ccc(NC(=O)NS(=O)(=O)Cc4cccc(F)c4)cc3F)c2cc1OC`, for which the IC50 was found to be 3.53 µM in assay [1], 3.06 µM in [2], 1.79 µM in assay [3] and 1.63 µM in assay [4].

On to `COc1cc2c(Oc3ccc(NC(=O)NS(=O)(=O)Cc4ccccc4)cc3F)ccnc2cc1OCCCN1CCCC1`, for which the IC50 in assay [1] turned out to be 1.21 µM; in assay [2] it was 0.93 µM; in assay [3] it was 0.43 µM; in assay [4], 0.61 µM.

Turning to `COc1cc2nccc(Oc3ccc(NC(=O)NS(=O)(=O)Cc4ccccc4)cc3)c2cc1OC`, the IC50 is 3.84 µM in [1], 4.35 µM in [2], 2.6 µM in assay [3] and 2.08 µM in assay [4].

On to `COc1cc2nccc(Oc3ccc(NC(=O)NS(=O)(=O)Cc4ccc(C(F)(F)F)cc4)cc3F)c2cc1OC`, for which the IC50 in assay [1] turned out to be 9.46 µM; in assay [2], 8.15 µM; in assay [3], 12.2 µM; in [4] it was 10.3 µM.

For the molecule `COc1cc2nccc(Oc3ccc(NC(=O)NS(=O)(=O)Cc4ccccc4)cc3F)c2cc1OC`, the IC50 in [1] is 2.45 µM; in assay [2], 3.02 µM; in assay [3], 1.54 µM; in [4], 1.43 µM.

For the molecule `CCCCOc1cc2nccc(Oc3ccc(NC(=O)NS(=O)(=O)Cc4ccc(F)cc4)cc3F)c2cc1OC`, the IC50 in assay [1] was found to be 2.29 µM; in assay [2] it was 2.88 µM; in [3], 1.44 µM; in [4], 1.31 µM.

Regarding `CCCCOc1cc2nccc(Oc3ccc(NC(=O)NS(=O)(=O)Cc4ccccc4)cc3F)c2cc1OC`, the IC50 in [1] was 2.4 µM; in assay [2], 3.12 µM; in assay [3], 1.84 µM; in [4] it was 1.72 µM.

For the molecule `CCCCOc1cc2nccc(Oc3ccc(NC(=O)NS(=O)(=O)Cc4ccc(C)cc4)cc3F)c2cc1OC`, the IC50 turned out to be 8.98 µM in assay [1], 9.32 µM in [2], 5.87 µM in [3] and 6.48 µM in assay [4].

`COc1cc2c(Oc3ccc(NC(=O)NS(=O)(=O)Cc4ccc(C)cc4)cc3F)ccnc2cc1OCCCN1CCCCC1`: the IC50 in assay [1] was determined as 2.54 µM; in assay [2], 2.17 µM; in assay [3], 0.92 µM; in assay [4], 1.13 µM.

Regarding `COc1cc2nccc(Oc3ccc(NC(=O)NS(=O)(=O)Cc4ccccc4F)cc3F)c2cc1OC`, the IC50 in [1] came out at 2.95 µM; in [2], 3.12 µM; in assay [3], 1.88 µM; in assay [4], 2.02 µM.

Turning to `COc1cc2c(Oc3ccc(NC(=O)C4(C(=O)Nc5ccc(F)cc5)CC4)cc3F)ccnc2cc1OCCCN1CCOCC1` [FORETINIB], the midpoint of inhibition in assay [10], the IC50, lay at 0.00496 µM.

Regarding `COc1cc2nccc(Oc3ccc(NC(=O)NS(=O)(=O)Cc4ccc(Cl)cc4)cc3F)c2cc1OC`, the IC50 came out at 3.16 µM in assay [1], 2.88 µM in assay [2], 1.45 µM in [3] and 1.42 µM in assay [4].

In the case of `COc1cc2c(Oc3ccc(NC(=O)NS(=O)(=O)Cc4ccccc4)cc3F)ccnc2cc1OCCCN1CCOCC1`, the IC50 was found to be 1.08 µM in assay [1], 1.28 µM in [2], 0.6 µM in assay [3] and 0.33 µM in [4].

`COc1cc2c(Oc3ccc(NC(=O)NS(=O)(=O)Cc4ccc(F)cc4)cc3F)ccnc2cc1OCCCN1CCOCC1`: the IC50 in [1] was 0.78 µM; in [2], 0.34 µM; in assay [3] it was 0.16 µM; in [4] it was 0.12 µM.

With `COc1cc2nccc(Oc3ccc(NC(=O)NS(=O)(=O)Cc4ccc(Cl)cc4Cl)cc3F)c2cc1OC`, the IC50 was 4.56 µM in [1], 2.97 µM in assay [2], 3.54 µM in assay [3] and 2.24 µM in [4].

Regarding `COc1cc2nccc(Oc3ccc(NC(=O)NS(=O)(=O)Cc4ccccc4C)cc3F)c2cc1OC`, the IC50 was 5.67 µM in assay [1], 6.21 µM in assay [2], 3.02 µM in assay [3] and 3.42 µM in [4].

For the molecule `COc1cc2nccc(Oc3ccc(NC(=O)NS(=O)(=O)Cc4ccc(C)cc4)cc3F)c2cc1OC`, the IC50 in assay [1] turned out to be 7.62 µM; in [2], 7.15 µM; in assay [3] it was 4.77 µM; in [4], 5.38 µM.

For `COc1cc2nccc(Oc3ccc(NC(=O)NS(=O)(=O)Cc4cccc(C)c4)cc3F)c2cc1OC`, the IC50 was 6.56 µM in [1], 6.03 µM in assay [2], 3.87 µM in assay [3] and 4.54 µM in assay [4].

As to `COc1cc2c(Oc3ccc(NC(=O)NS(=O)(=O)Cc4ccc(C)cc4)cc3F)ccnc2cc1OCCCN1CCOCC1`, the IC50 in assay [1] turned out to be 3.86 µM; in assay [2], 3.76 µM; in assay [3], 1.54 µM; in [4], 1.67 µM.

For `COc1cc2c(Oc3ccc(NC(=O)NS(=O)(=O)Cc4ccc(F)cc4)cc3F)ccnc2cc1OCCCN1CCCCC1`, the IC50 in assay [1] came to 0.6 µM; in assay [2], 0.32 µM; in [3], 0.15 µM; in assay [4], 0.23 µM.
